Assay results taken from ChEMBL document CHEMBL1201862, “PubChem BioAssay data set” (2004).
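Method: 48-hour compound exposure of cells in 96-well plates, five concentrations, linear interpolation of endpoints. At the GI50, growth is halved.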 Activity calls are given as the source filed them. Rule as the data show it: active = GI50 up to about 1.1 µM and inactive = higher.

Assays:
Test in all cases: DTP human tumour cell line panel, 48 h
SK-OV-3 = test system: SK-OV-3
UACC-257 = test system: UACC-257
KM12 = test system: KM12
HOP-62 = test system: HOP-62
TK-10 = test system: TK-10
SN12C = test system: SN12C
IGROV-1 = test system: IGROV-1
M14 = test system: M14
K562 = test system: K562
SF-268 = test system: SF-268
SNB-19 = test system: SNB-19
U-251 = test system: U-251
NCI-H226 = test system: NCI-H226
MDA-MB-231 = test system: MDA-MB-231
EKVX = test system: EKVX
HCT-15 = test system: HCT-15
ACHN = test system: ACHN
SK-MEL-2 = test system: SK-MEL-2
UO-31 = test system: UO-31
OVCAR-8 = test system: OVCAR-8

SMILES | GI50 (SK-OV-3) | GI50 (UACC-257) | GI50 (KM12) | GI50 (HOP-62) | GI50 (TK-10) | GI50 (SN12C) | GI50 (IGROV-1) | GI50 (M14) | GI50 (K562) | GI50 (SF-268) | GI50 (SNB-19) | GI50 (U-251) | GI50 (NCI-H226) | GI50 (MDA-MB-231) | GI50 (EKVX) | GI50 (HCT-15) | GI50 (ACHN) | GI50 (SK-MEL-2) | GI50 (UO-31) | GI50 (OVCAR-8)
COc1ccccc1N1CCN(CCCN2C(C(=O)c3ccccc3)=C(O)c3c(C)cc(C)nc3S2(=O)=O)CC1 | 85.9 µM (inactive) | 74.1 µM (inactive) | > 100 µM (inactive) | 77.8 µM (inactive) | > 100 µM (inactive) | 63 µM (inactive) | 72.1 µM (inactive) | 90.4 µM (inactive) | 56.5 µM (inactive) | 42.5 µM (inactive) | 48.8 µM (inactive) | 58.6 µM (inactive) | 0.867 µM (active) | > 100 µM (inactive) | 37 µM (inactive) | 56.6 µM | 89.1 µM (inactive) | > 100 µM (inactive) | 27.8 µM (inactive) | 64.1 µM (inactive)
Cc1ccc(Cc2nn(C)c(=O)n2-n2cccc2)cc1 | > 100 µM (inactive) | 56.8 µM (inactive) | > 100 µM (inactive) | > 100 µM (inactive) | > 100 µM (inactive) | > 100 µM (inactive) | > 100 µM (inactive) | > 100 µM (inactive) | > 100 µM (inactive) | > 100 µM (inactive) | > 100 µM (inactive) | > 100 µM (inactive) | > 100 µM (inactive) | > 100 µM (inactive) | > 100 µM (inactive) | > 100 µM | > 100 µM (inactive) | > 100 µM (inactive) | > 100 µM (inactive) | > 100 µM (inactive)
Cc1ccc(Nc2nc(=S)[nH]c3[nH]ncc23)cc1 | > 100 µM (inactive) | 84.5 µM (inactive) | 31 µM (inactive) | > 100 µM (inactive) | 81.1 µM (inactive) | 71.8 µM (inactive) | 30.1 µM (inactive) | > 100 µM (inactive) | 49 µM (inactive) | > 100 µM (inactive) | > 100 µM (inactive) | 64.7 µM (inactive) | > 100 µM (inactive) | > 100 µM (inactive) | > 100 µM (inactive) | 47.6 µM | 48.4 µM (inactive) | 82.4 µM (inactive) | 78 µM (inactive) | > 100 µM (inactive)
CSC(=S)OC1C(CO[Si](C)(C)C(C)(C)C)OC2OC(C)(C)OC21 (stereo not given) | 20.2 µM (inactive) | 17.1 µM (inactive) | 15.6 µM (inactive) | 18.4 µM (inactive) | 20.5 µM (inactive) | 21.3 µM (inactive) | 18.3 µM (inactive) | 47 µM (inactive) | 17.1 µM (inactive) | 15.2 µM (inactive) | 21 µM (inactive) | 17.5 µM (inactive) | 14.5 µM (inactive) | 17.7 µM (inactive) | 20.3 µM (inactive) | 18.4 µM | 17.1 µM (inactive) | 15 µM (inactive) | 17.7 µM (inactive) | 27.3 µM (inactive)
CN(CCCNC(=O)c1nn(-c2ccccc2)c2c1ccc1ccccc12)CCCNC(=O)c1nn(-c2ccccc2)c2c1ccc1ccccc12 | 1.83 µM (inactive) | 1.98 µM (inactive) | 2.16 µM (inactive) | 1.86 µM (inactive) | 1.78 µM (inactive) | 1.85 µM (inactive) | 1.65 µM (inactive) | 1.85 µM (inactive) | 1.29 µM (inactive) | 1.98 µM (inactive) | 1.79 µM (inactive) | 1.6 µM (inactive) | 2.08 µM (inactive) | 2.12 µM (inactive) | 1.81 µM (inactive) | 1.84 µM | 1.74 µM (inactive) | 1.69 µM (inactive) | 1.52 µM (inactive) | 1.85 µM (inactive)
CCCCCCCCCCCCCCCCCCOP(=O)([O-])OC1CC[N+](C)(C)CC1 [PERIFOSINE] | 5.64 µM (inactive) | 19.8 µM (inactive) | 0.53 µM (active) | 7.53 µM (inactive) | 2.04 µM (inactive) | 4.6 µM (inactive) | 2.18 µM (inactive) | 2.97 µM (inactive) | 16.4 µM (inactive) | 9.89 µM (inactive) | 9.25 µM (inactive) | 12.4 µM (inactive) | 11.2 µM (inactive) | 6.89 µM (inactive) | 11.3 µM (inactive) | 2.48 µM | 12.4 µM (inactive) | 13.8 µM (inactive) | 8.91 µM (inactive) | 14.7 µM (inactive)
